Fatalities data for one compound are collected here from PMC12424289, “Programmable Nanostructure Assembly of a Paclitaxel Derivative Enables Tunable Anticancer Therapy via Hydrogen Bond Engineering” (ACS Nano, 2025).

For the data set, the system named is Balb/c mice. Nature of the data set: Maximum tolerated dose / survival in mice. It is filed as in vivo, mouse. As to conditions: iv, PTP 100 mg·kg^–1, 14 days.

For the compound `CC(=O)O[C@H]1C(=O)[C@@]2(C)[C@H]([C@H](OC(=O)c3ccccc3)[C@]3(O)C[C@H](OC(=O)[C@H](OC(=O)CCP(=O)(O)O)[C@@H](NC(=O)c4ccccc4)c4ccccc4)C(C)=C1C3(C)C)[C@]1(OC(C)=O)CO[C@@H]1C[C@@H]2O` [PTP, PTX-2’–OOC-P], the fatalities entry was “No fatalities”.
